Data as given in BigSolDB 2.1.

COc1ccc(-c2nn(-c3ccccc3)cc2/C=C/C(=O)c2nc3ccccc3[nH]2)cc1OC
solubility (mole fraction)
Settings | in acetonitrile | in ethanol | in ethyl acetate | in methanol | in n-butanol | in n-pentanol | in n-propanol
298.15 K | 0.000113 | 3.91e-05 | 0.000355 | 3.04e-05 | 0.00016 | 0.00031 | 0.000125
303.15 K | 0.000135 | 5e-05 | 0.000425 | 3.6e-05 | 0.000209 | 0.00033 | 0.00014
308.15 K | 0.000152 | 5.88e-05 | 0.000471 | 4.06e-05 | 0.000244 | 0.000354 | 0.00015
313.15 K | 0.00017 | 7.16e-05 | 0.00052 | 4.47e-05 | 0.00028 | 0.000375 | 0.000167
318.15 K | 0.000189 | 8.46e-05 | 0.000554 | 5.02e-05 | 0.000321 | 0.000395 | 0.000185
323.15 K | 0.00021 | 0.0001 | 0.00059 | 5.5e-05 | 0.00035 | 0.000412 | 0.0002
328.15 K | 0.00023 | 0.000111 | 0.000629 | 6.53e-05 | 0.00039 | 0.00043 | 0.00022

COc1cccc(-c2nn(-c3ccccc3)cc2/C=C/C(=O)c2nc3ccccc3[nH]2)c1
solubility (mole fraction)
Settings | in acetonitrile | in ethanol | in ethyl acetate | in methanol | in n-butanol | in n-pentanol | in n-propanol
298.15 K | 2.91e-05 | 7.24e-05 | 0.000241 | 2.71e-05 | 0.00017 | 0.000227 | 0.000126
303.15 K | 4.16e-05 | 8.5e-05 | 0.000256 | 3.15e-05 | 0.000185 | 0.000274 | 0.000145
308.15 K | 5.87e-05 | 0.000106 | 0.000274 | 3.63e-05 | 0.000211 | 0.000312 | 0.000166
313.15 K | 7.62e-05 | 0.000121 | 0.000292 | 4.12e-05 | 0.00023 | 0.000381 | 0.000187
318.15 K | 9.21e-05 | 0.000136 | 0.000317 | 4.62e-05 | 0.000258 | 0.000427 | 0.000206
323.15 K | 0.000111 | 0.000148 | 0.000336 | 5.15e-05 | 0.000285 | 0.000457 | 0.000231
328.15 K | 0.000122 | 0.000165 | 0.000365 | 5.81e-05 | 0.000311 | 0.000499 | 0.000245

O=C(/C=C/c1cn(-c2ccccc2)nc1-c1ccccc1Cl)c1nc2ccccc2[nH]1
solubility (mole fraction)
Settings | in acetonitrile | in ethanol | in ethyl acetate | in methanol | in n-butanol | in n-pentanol | in n-propanol
298.15 K | 1.78e-05 | 0.000105 | 0.00077 | 9.04e-05 | 0.000294 | 0.000354 | 0.000157
303.15 K | 6e-05 | 0.000125 | 0.00095 | 0.000116 | 0.00033 | 0.0004 | 0.000167
308.15 K | 0.000101 | 0.000145 | 0.00107 | 0.000133 | 0.000354 | 0.000448 | 0.000177
313.15 K | 0.00014 | 0.000157 | 0.0012 | 0.000149 | 0.0004 | 0.00051 | 0.000189
318.15 K | 0.000187 | 0.000179 | 0.00135 | 0.000168 | 0.000445 | 0.0006 | 0.000205
323.15 K | 0.00021 | 0.000195 | 0.00145 | 0.000187 | 0.0005 | 0.00069 | 0.00022
328.15 K | 0.000241 | 0.000217 | 0.00157 | 0.000209 | 0.000533 | 0.00074 | 0.000244

O=C(/C=C/c1cn(-c2ccccc2)nc1-c1cccc([N+](=O)[O-])c1)c1nc2ccccc2[nH]1
solubility (mole fraction)
Settings | in acetonitrile | in ethanol | in ethyl acetate | in methanol | in n-butanol | in n-pentanol | in n-propanol
298.15 K | 0.000103 | 5.53e-05 | 0.0013 | 4.04e-05 | 0.000202 | 0.000281 | 0.000115
303.15 K | 0.000123 | 6.2e-05 | 0.00149 | 4.85e-05 | 0.000236 | 0.000326 | 0.000135
308.15 K | 0.000148 | 7.01e-05 | 0.0017 | 5.5e-05 | 0.000279 | 0.000368 | 0.000164
313.15 K | 0.000163 | 8.42e-05 | 0.00194 | 5.9e-05 | 0.000324 | 0.000424 | 0.000175
318.15 K | 0.00019 | 9.46e-05 | 0.00217 | 6.59e-05 | 0.000359 | 0.000455 | 0.000206
323.15 K | 0.000216 | 0.000103 | 0.00244 | 7.4e-05 | 0.000402 | 0.000513 | 0.000226
328.15 K | 0.000232 | 0.000119 | 0.00277 | 8.21e-05 | 0.000445 | 0.000557 | 0.000251

O=C(/C=C/c1cn(-c2ccccc2)nc1-c1ccccc1)c1nc2ccccc2[nH]1
solubility (mole fraction)
Settings | in acetonitrile | in ethanol | in ethyl acetate | in methanol | in n-butanol | in n-pentanol | in n-propanol
298.15 K | 5.71e-05 | 8.48e-05 | 0.000159 | 5.54e-05 | 0.000248 | 0.000257 | 0.000135
303.15 K | 6.5e-05 | 9.4e-05 | 0.000195 | 6.53e-05 | 0.000275 | 0.000332 | 0.000152
308.15 K | 7.61e-05 | 0.000106 | 0.000243 | 8.08e-05 | 0.000299 | 0.000406 | 0.000179
313.15 K | 9.3e-05 | 0.000123 | 0.000312 | 8.83e-05 | 0.000335 | 0.000475 | 0.000189
318.15 K | 0.000102 | 0.000135 | 0.000362 | 9.87e-05 | 0.000374 | 0.000535 | 0.000215
323.15 K | 0.00012 | 0.000146 | 0.000403 | 0.000115 | 0.000425 | 0.000592 | 0.000226
328.15 K | 0.000132 | 0.00016 | 0.000463 | 0.000123 | 0.000465 | 0.000639 | 0.000255

COc1ccc(-c2nn(-c3ccccc3)cc2/C=C/C(=O)c2nc3ccccc3[nH]2)cc1
solubility (mole fraction)
Settings | in acetonitrile | in ethanol | in ethyl acetate | in methanol | in n-butanol | in n-pentanol | in n-propanol
298.15 K | 0.000165 | 0.000352 | 0.000809 | 0.000145 | 0.00133 | 0.00156 | 0.00049
303.15 K | 0.0002 | 0.000372 | 0.000826 | 0.000149 | 0.00136 | 0.00162 | 0.00052
308.15 K | 0.000227 | 0.000385 | 0.000846 | 0.000155 | 0.00138 | 0.00168 | 0.000541
313.15 K | 0.00025 | 0.000399 | 0.000868 | 0.00016 | 0.00142 | 0.00174 | 0.000565
318.15 K | 0.000282 | 0.00042 | 0.000886 | 0.000167 | 0.00145 | 0.00179 | 0.000586
323.15 K | 0.000301 | 0.00043 | 0.00091 | 0.00017 | 0.00149 | 0.00185 | 0.000615
328.15 K | 0.000329 | 0.000452 | 0.000935 | 0.000177 | 0.00151 | 0.00191 | 0.000628

O=C(/C=C/c1cn(-c2ccccc2)nc1-c1ccc(Cl)cc1)c1nc2ccccc2[nH]1
solubility (mole fraction)
Settings | in acetonitrile | in ethanol | in ethyl acetate | in methanol | in n-butanol | in n-pentanol | in n-propanol
298.15 K | 0.000116 | 0.000102 | 0.000257 | 4.06e-05 | 0.00015 | 0.000253 | 8.35e-05
303.15 K | 0.000135 | 0.000113 | 0.00029 | 5.1e-05 | 0.000175 | 0.000275 | 0.000103
308.15 K | 0.000153 | 0.00012 | 0.000328 | 6.74e-05 | 0.000201 | 0.000304 | 0.000121
313.15 K | 0.000171 | 0.000132 | 0.000385 | 7.9e-05 | 0.000216 | 0.000354 | 0.000132
318.15 K | 0.000182 | 0.000148 | 0.000432 | 9.36e-05 | 0.00024 | 0.000387 | 0.00015
323.15 K | 0.000193 | 0.000155 | 0.000482 | 0.000105 | 0.000258 | 0.000423 | 0.000158
328.15 K | 0.000211 | 0.000172 | 0.000526 | 0.000117 | 0.000295 | 0.000442 | 0.000167
